Results published in patent US20250228239A1, “MOLECULES HAVING PESTICIDAL UTILITY, AND INTERMEDIATES, COMPOSITIONS, AND PROCESSES, RELATED THERETO” (priority 2024, published 2025).

Key:
Type in all cases: in vivo
[1] = test system: Beet Armyworm (Spodoptera exigua, LAPHEG); test: Bioassays on Beet Armyworm (BAW), 128-well diet tray assay; details: Spodoptera exigua; Table ABC: Biological Results; species BAW; read-out: BAW
Summary of the method: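 Test molecule was dissolved in 90:10 acetone-water and applied at 50 μg/cm^2 onto artificial diet in eight wells, then dried. Second instar larvae, one to five per well, were added, and trays were kept vented at 25° C. with a 14:10 photoperiod for five to seven days before mortality was recorded.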

[2] = test system: Cabbage Looper (Trichoplusia ni, TRIPNI); test: Bioassays on Cabbage Looper (CL), 128-well diet tray assay; details: Trichoplusia ni; Table ABC: Biological Results; species CL; read-out: CL
Summary of the method: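 One to five second-instar larvae per well on artificial diet surface-treated with 50 μg/cm^2 test molecule (applied in 90:10 acetone-water, dried). Held 5–7 days at 25° C, 14:10 light-dark; percent mortality recorded per well and averaged over eight wells.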

[3] = test system: Yellow Fever Mosquito (Aedes aegypti, AEDSAE); details: Table ABC: Biological Results; species YFM
Summary of the method: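 Rating-scale grades reflect larval mortality scored per well after 3 days at room temperature under non-evaporative lids. Larvae (~1 day old, hatched overnight in liver-powder water) were added to six daughter plates per compound, prepared from a 4000 ppm DMSO stock diluted in 90:10 water/acetone.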

SMILES	pest or weed control at 50 µg/cm2 [1]	pest or weed control at 50 µg/cm2 [2]	YFM [3]
C#CCN(C(=O)c1cc(NC(=O)[C@H]2[C@H](c3ccc(F)c(C(F)(F)F)c3)C2(Cl)Cl)ccc1Cl)c1ccc(F)c(N)c1F (relative stereo) [F1114, trans-N-(3-Amino-2,4-difluorophenyl)-2-chloro-5-(2,2-dichloro-3-(4-fluoro-3-(trifluoromethyl)phenyl)cyclopropane-1-carboxamido)-N-(prop-2-yn-1-yl)benzamide]	50 to 100%	50 to 100%	A (80–100)
Nc1c(F)ccc(NC(=O)c2cc(NC(=O)[C@H]3[C@H](c4ccc(Br)c(C(F)(F)F)c4)C3(Cl)Cl)ccc2Cl)c1F (relative stereo) [F1116, trans-N-(3-Amino-2,4-difluorophenyl)-5-(3-(4-bromo-3-(trifluoromethyl)phenyl)-2,2-dichlorocyclopropane-1-carboxamido)-2-chlorobenzamide]	50 to 100%	50 to 100%	A (80–100)
Cc1cc(NCc2ccc(OC(F)(F)F)cc2)ccc1NC(=O)c1cc(NC(=O)[C@H]2[C@H](c3cc(Cl)cc(Cl)c3)C2(Cl)Cl)ccc1Cl (relative stereo) [F1117, trans-2-Chloro-5-(2,2-dichloro-3-(3,5-dichlorophenyl)cyclopropane-1-carboxamido)-N-(2-methyl-4-((4-(trifluoromethoxy)benzyl)amino)phenyl)benzamide]	50 to 100%	50 to 100%	A (80–100)
O=C(Nc1ccc(F)cc1F)c1cc(NC(=O)[C@H]2[C@H](c3cc(Cl)cc(C(F)(F)F)c3)C2(Cl)Cl)ccc1Cl (relative stereo) [F1118, trans-2-Chloro-5-(2,2-dichloro-3-(3-chloro-5-(trifluoromethyl)phenyl)cyclopropane-1-carboxamido)-N-(2,4-difluorophenyl)benzamide]	50 to 100%	50 to 100%	A (80–100)
CC(C)(C)OC(=O)Nc1c(F)ccc(NC(=O)c2cc(NC(=O)[C@H]3[C@H](c4cc(Cl)cc(C(F)(F)F)c4)C3(Cl)Cl)ccc2Cl)c1F (relative stereo) [F1119, trans-tert-Butyl-(3-(2-chloro-5-(2,2-dichloro-3-(3-chloro-5-(trifluoromethyl)phenyl)cyclopropane-1-carboxamido)benzamido)-2,6-difluorophenyl)carbamate]	50 to 100%	50 to 100%	A (80–100)
Nc1c(F)ccc(NC(=O)c2cc(NC(=O)[C@H]3[C@H](c4cc(Cl)cc(C(F)(F)F)c4)C3(Cl)Cl)ccc2Cl)c1F (relative stereo) [F1127, trans-N-(3-Amino-2,4-difluorophenyl)-2-chloro-5-(2,2-dichloro-3-(3-chloro-5-(trifluoromethyl)phenyl)cyclopropane-1-carboxamido)benzamide]	50 to 100%	50 to 100%	A (80–100)
Cc1cc(NCCO)ccc1NC(=O)c1cc(NC(=O)[C@H]2[C@H](c3cc(Cl)cc(Cl)c3)C2(Cl)Cl)ccc1Cl (relative stereo) [F1130, trans-2-chloro-5-(2,2-dichloro-3-(3,5-dichlorophenyl)cyclopropane-1-carboxamido)-N-(4-((2-hydroxyethyl)amino)-2-methylphenyl)benzamide]	50 to 100%	50 to 100%	A (80–100)
Cc1cc(NC(=O)[C@H]2[C@H](c3ccc(F)c(Cl)c3)C2(Cl)Cl)cc(C(=O)Nc2ccc(F)cc2)c1F (relative stereo) [F1136, trans-5-(2,2-Dichloro-3-(3-chloro-4-fluorophenyl)cyclopropane-1-carboxamido)-2-fluoro-N-(4-fluorophenyl)-3-methylbenzamide]	50 to 100%	50 to 100%	A (80–100)
Cc1cc(NC(=O)[C@H]2[C@H](c3ccc(F)c(Cl)c3)C2(Cl)Cl)cc(C(=O)Nc2ccc(F)cc2F)c1F (relative stereo) [F1137, trans-5-(2,2-Dichloro-3-(3-chloro-4-fluorophenyl)cyclopropane-1-carboxamido)-N-(2,4-difluorophenyl)-2-fluoro-3-methylbenzamide]	50 to 100%	50 to 100%	A (80–100)
CC(=O)Nc1ccc(NC(=O)c2cc(NC(=O)[C@H]3[C@H](c4ccc(F)c(Cl)c4)C3(Cl)Cl)cc(C)c2F)cc1 (relative stereo) [F1139, trans-N-(4-Acetamidophenyl)-5-(2,2-dichloro-3-(3-chloro-4-fluorophenyl)-cyclopropane-1-carboxamido)-2-fluoro-3-methylbenzamide]	50 to 100%	50 to 100%	A (80–100)
Nc1c(F)ccc(NC(=O)c2cc(NC(=O)[C@H]3[C@H](c4ccc(I)cc4)C3(Cl)Cl)ccc2Cl)c1F (relative stereo) [F1140, trans-N-(3-Amino-2,4-difluorophenyl)-2-chloro-5-(2,2-dichloro-3-(4-iodophenyl)cyclopropane-1-carboxamido)benzamide]	50 to 100%	50 to 100%	A (80–100)
Nc1c(F)ccc(NC(=O)c2cc(NC(=O)[C@H]3[C@H](c4cccc(I)c4)C3(Cl)Cl)ccc2Cl)c1F (relative stereo) [F1141, trans-N-(3-Amino-2,4-difluorophenyl)-2-chloro-5-(2,2-dichloro-3-(3-iodophenyl)cyclopropane-1-carboxamido)benzamide]	50 to 100%	50 to 100%	A (80–100)
Nc1c(F)ccc(NC(=O)c2cc(NC(=O)[C@H]3[C@H](c4ccc(S(F)(F)(F)(F)F)cc4)C3(Cl)Cl)ccc2Cl)c1F (relative stereo) [F1142, trans-N-(3-Amino-2,4-difluorophenyl)-2-chloro-5-(2,2-dichloro-3-(4-(pentafluoro-λ^6-sulfanyl)phenyl)cyclopropane-1-carboxamido)benzamide]	50 to 100%	50 to 100%	A (80–100)
Nc1c(F)ccc(NC(=O)c2cc(NC(=O)[C@H]3[C@H](c4cccc(S(F)(F)(F)(F)F)c4)C3(Cl)Cl)ccc2Cl)c1F (relative stereo) [F1143, trans-N-(3-Amino-2,4-difluorophenyl)-2-chloro-5-(2,2-dichloro-3-(3-(pentafluoro-λ^6-sulfanyl)phenyl)cyclopropane-1-carboxamido)benzamide]	50 to 100%	50 to 100%	A (80–100)
Nc1c(F)ccc(NC(=O)c2cc(NC(=O)[C@H]3[C@H](c4cc(Cl)c(Cl)c(C(F)(F)F)c4)C3(Cl)Cl)ccc2Cl)c1F (relative stereo) [F1149, trans-N-(3-Amino-2,4-difluorophenyl)-2-chloro-5-(2,2-dichloro-3-(3,4-dichloro-5-(trifluoromethyl)phenyl)cyclopropane-1-carboxamido)benzamide]	50 to 100%	50 to 100%	A (80–100)
Nc1c(F)ccc(NC(=O)c2cc(NC(=O)[C@H]3[C@@H](c4cc(Cl)c(Cl)c(C(F)(F)F)c4)C3(Cl)Cl)ccc2Cl)c1F (relative stereo) [F1150, cis-N-(3-Amino-2,4-difluorophenyl)-2-chloro-5-(2,2-dichloro-3-(3,4-dichloro-5-(trifluoromethyl)phenyl)cyclopropane-1-carboxamido)benzamide]	50 to 100%	50 to 100%	A (80–100)
O=C(Nc1ccc(F)cc1)c1cc(NC(=O)[C@H]2[C@H](c3ccc(F)c(Cl)c3)C2(Cl)Cl)cc(F)c1Cl (relative stereo) [F1152, trans-2-Chloro-5-(2,2-dichloro-3-(3-chloro-4-fluorophenyl)cyclopropane-1-carboxamido)-3-fluoro-N-(4-fluorophenyl)benzamide]	50 to 100%	50 to 100%	A (80–100)
O=C(Nc1ccc(F)cc1F)c1cc(NC(=O)[C@H]2[C@H](c3ccc(F)c(Cl)c3)C2(Cl)Cl)cc(F)c1Cl (relative stereo) [F1153, trans-2-Chloro-5-(2,2-dichloro-3-(3-chloro-4-fluorophenyl)cyclopropane-1-carboxamido)-N-(2,4-difluorophenyl)-3-fluorobenzamide]	50 to 100%	50 to 100%	A (80–100)
CC(=O)Nc1ccc(NC(=O)c2cc(NC(=O)[C@H]3[C@H](c4ccc(F)c(Cl)c4)C3(Cl)Cl)cc(F)c2Cl)cc1 (relative stereo) [F1154, trans-N-(4-Acetamidophenyl)-2-chloro-5-(2,2-dichloro-3-(3-chloro-4-fluorophenyl)cyclopropane-1-carboxamido)-3-fluorobenzamide]	50 to 100%	50 to 100%	A (80–100)
CC(=O)Nc1c(F)ccc(NC(=O)c2cc(NC(=O)[C@H]3[C@H](c4cc(Cl)cc(Cl)c4)C3(Cl)Cl)ccc2Cl)c1Cl (relative stereo) [F1160, trans-N-(3-acetamido-2-chloro-4-fluorophenyl)-2-chloro-5-(2,2-dichloro-3-(3,5-dichlorophenyl)cyclopropane-1-carboxamido)benzamide]	50 to 100%	50 to 100%	A (80–100)
